# Results from US8637499B2, “Benzoxazepines as inhibitors of PI3K/mTOR and methods of their use and manufacture” (Exelixis, Inc., priority 2009, dated 2014).
# Columns and labels:
# mTORC1 (mTOR/GbL/Raptor) = mTORC1 (mTOR/GbL/Raptor) (Homo sapiens, UniProt P42345); test: mTOR/GbL/Raptor (mTORC1) ELISA Assay; type: biochemical; conditions: 0.2 nM mTORC1, 10 μM ATP, 50 nM NHis-tagged 4E-BP1; phosphorylation of 4E-BP1; read-out: IC50
# How it was run: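 mTORC1 (0.2 nM) phosphorylated NHis-tagged 4E-BP1 (50 nM) with 10 μM ATP in 20 mM Hepes pH 7.2, 10 mM MnCl2, for 120 min at ambient temperature. Product was captured on Ni-chelate plates and detected with anti-phospho-4E-BP1 plus HRP secondary antibody by chemiluminescence.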
# PI3Kα = PI3Kα (Homo sapiens, UniProt P42336); test: PI3K Biochemical Assays (ATP consumption, luciferase-luciferin chemiluminescence); conditions: PI3Kα 1.5 nM, ATP 1 μM, PIP2 10 μM; percent of ATP consumed
# How it was run: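 Kinase activity read as percent ATP consumed via luciferase-luciferin chemiluminescence. 1.5 nM enzyme, 1 μM ATP, 10 μM PIP2 in 50 mM Tris pH 7.5, 1 mM EGTA, 10 mM MgCl2, 1 mM DTT, 0.03% CHAPS; ~2 h at ambient temperature, ATP consumption kept to 40-60%.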
# Sequence of PI3Kα (P42336 whole entry): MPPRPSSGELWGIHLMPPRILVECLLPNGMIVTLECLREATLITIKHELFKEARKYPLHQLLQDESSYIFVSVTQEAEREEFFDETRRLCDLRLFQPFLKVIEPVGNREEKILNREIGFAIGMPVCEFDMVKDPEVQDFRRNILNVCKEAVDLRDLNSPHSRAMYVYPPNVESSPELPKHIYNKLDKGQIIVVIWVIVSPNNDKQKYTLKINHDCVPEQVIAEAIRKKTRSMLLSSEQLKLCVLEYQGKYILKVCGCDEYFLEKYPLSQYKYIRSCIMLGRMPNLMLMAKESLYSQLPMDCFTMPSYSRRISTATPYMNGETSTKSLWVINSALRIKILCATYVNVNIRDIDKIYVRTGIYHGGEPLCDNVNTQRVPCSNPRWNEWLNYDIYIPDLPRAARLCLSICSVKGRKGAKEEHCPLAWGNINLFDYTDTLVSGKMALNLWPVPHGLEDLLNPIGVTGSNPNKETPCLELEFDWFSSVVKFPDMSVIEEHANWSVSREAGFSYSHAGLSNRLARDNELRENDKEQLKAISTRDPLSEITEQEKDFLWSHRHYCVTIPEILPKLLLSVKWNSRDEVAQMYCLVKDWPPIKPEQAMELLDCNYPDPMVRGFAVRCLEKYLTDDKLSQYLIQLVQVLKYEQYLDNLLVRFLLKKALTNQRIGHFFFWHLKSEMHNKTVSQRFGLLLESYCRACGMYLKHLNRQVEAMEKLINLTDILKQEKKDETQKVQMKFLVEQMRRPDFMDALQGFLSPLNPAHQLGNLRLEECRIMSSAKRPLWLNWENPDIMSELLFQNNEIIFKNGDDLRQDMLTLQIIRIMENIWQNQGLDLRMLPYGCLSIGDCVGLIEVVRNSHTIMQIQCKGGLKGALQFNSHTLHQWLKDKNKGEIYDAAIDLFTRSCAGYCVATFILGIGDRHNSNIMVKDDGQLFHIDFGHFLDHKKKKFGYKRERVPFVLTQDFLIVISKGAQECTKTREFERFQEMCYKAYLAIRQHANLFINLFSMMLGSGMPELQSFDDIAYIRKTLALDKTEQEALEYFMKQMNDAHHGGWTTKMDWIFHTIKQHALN
# Sequence of PI3Kα (P27986 whole entry partner): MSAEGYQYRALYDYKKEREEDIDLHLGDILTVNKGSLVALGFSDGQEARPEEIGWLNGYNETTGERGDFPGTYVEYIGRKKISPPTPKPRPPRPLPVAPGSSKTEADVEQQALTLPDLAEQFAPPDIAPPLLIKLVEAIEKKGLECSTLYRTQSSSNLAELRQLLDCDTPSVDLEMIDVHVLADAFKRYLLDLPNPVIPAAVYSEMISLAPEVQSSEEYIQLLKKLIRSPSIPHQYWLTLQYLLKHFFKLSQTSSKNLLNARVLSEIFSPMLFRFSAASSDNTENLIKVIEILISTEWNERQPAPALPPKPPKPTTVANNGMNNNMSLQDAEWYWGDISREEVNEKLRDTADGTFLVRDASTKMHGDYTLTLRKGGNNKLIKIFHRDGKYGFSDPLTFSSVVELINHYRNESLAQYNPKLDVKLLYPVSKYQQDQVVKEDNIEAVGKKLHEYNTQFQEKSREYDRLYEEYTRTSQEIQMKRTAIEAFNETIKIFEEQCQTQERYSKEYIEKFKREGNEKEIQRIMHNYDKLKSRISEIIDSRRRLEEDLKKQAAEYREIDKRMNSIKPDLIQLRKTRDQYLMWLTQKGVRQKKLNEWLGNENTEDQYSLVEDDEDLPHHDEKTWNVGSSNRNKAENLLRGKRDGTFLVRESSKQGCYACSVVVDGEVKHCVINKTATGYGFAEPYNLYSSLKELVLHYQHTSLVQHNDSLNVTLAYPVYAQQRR
IC50 (mTORC1 (mTOR/GbL/Raptor)) [nM],IC50 (PI3Kα) [nM],SMILES
50 to 250,75 to 200,"Cc1nc2ccc(-c3ccc4c(c3)CN(C(=O)N3CCC(=O)CC3c3ccc(F)c(F)c3)CCO4)cc2[nH]1 (stereo not shown) [Compound 121, 2-(3,4-difluorophenyl)-1-{[7-(2-methyl-1H-benzimidazol-6-yl)-2,3-dihydro-1,4-benzoxazepin-4(5H)-yl]carbonyl}piperidin-4-one]"
50 to 250,200 to 500,"CC1=C[C@H]2CN(C(=O)N3CCOc4ccc(-c5ccc6[nH]c(C)nc6c5)cc4C3)C[C@H]2C1 (racemic) [Compound 91, (±)-7-(2-methyl-1H-benzimidazol-5-yl)-4-{[(3aS,6aR)-5-methyl-3,3a,4,6a-tetrahydrocyclopenta[c]pyrrol-2(1H)-yl]carbonyl}-2,3,4,5-tetrahydro-1,4-benzoxazepine]"
≤ 50,75 to 200,"Nc1nc2ccc(-c3ccc4c(c3)CN(C(=O)N3CCC(=O)CC3c3ccc(F)c(F)c3)CCO4)cc2[nH]1 (stereo not shown) [Compound 27, 1-{[7-(2-amino-1H-benzimidazol-6-yl)-2,3-dihydro-1,4-benzoxazepin-4(5H)-yl]carbonyl}-2-(3,4-difluorophenyl)piperidin-4-one]"
50 to 250,200 to 500,"Cc1nc2ccc(-c3ccc4c(c3)CN(C(=O)N3CC[C@@H](C#N)C[C@@H]3c3ccc(F)c(F)c3)CCO4)cc2[nH]1 (racemic) [Compound 148, (±)-(2R,4R)-2-(3,4-difluorophenyl)-1-{[7-(2-methyl-1H-benzimidazol-6-yl)-2,3-dihydro-1,4-benzoxazepin-4(5H)-yl]carbonyl}piperidine-4-carbonitrile]"
≤ 50,≤ 75,"O=C1CCN(C(=O)N2CCOc3ccc(-c4ccc5[nH]c(NCCF)nc5c4)cc3C2)C(c2cccc(F)c2)C1 (stereo not shown) [Compound 32, 1-{[7-{2-[(2-fluoroethyl)amino]-1H-benzimidazol-5-yl}-2,3-dihydro-1,4-benzoxazepin-4(5H)-yl]carbonyl}-2-(3-fluorophenyl)piperidin-4-one]"
50 to 250,1000 to 3000,"Cc1nc2ccc(-c3ccc4c(c3)CN(C(=O)N3CCCC3Cc3ccccc3)CCO4)cc2[nH]1 (stereo not shown) [Compound 94, 7-(2-methyl-1H-benzimidazol-6-yl)-4-{[2-(phenylmethyl)pyrrolidin-1-yl]carbonyl}-2,3,4,5-tetrahydro-1,4-benzoxazepine]"
≤ 50,75 to 200,"Cc1nc2ccc(-c3ccc4c(c3)CN(C(=O)N3CCCCC3c3ccc(F)c(C)c3)CCO4)cc2[nH]1 (stereo not shown) [Compound 118, 4-{[2-(4-fluoro-3-methylphenyl)piperidin-1-yl]carbonyl}-7-(2-methyl-1H-benzimidazol-6-yl)-2,3,4,5-tetrahydro-1,4-benzoxazepine]"
≤ 50,75 to 200,"Cc1nc2ccc(-c3ccc4c(c3)CN(C(=O)N3CCCCC3c3ccc(F)c(Cl)c3)CCO4)cc2[nH]1 (stereo not shown) [Compound 128, 4-{[2-(3-chloro-4-fluorophenyl)piperidin-1-yl]carbonyl}-7-(2-methyl-1H-benzimidazol-6-yl)-2,3,4,5-tetrahydro-1,4-benzoxazepine]"
50 to 250,500 to 1000,"Cc1nc2ccc(-c3ccc4c(c3)CN(C(=O)N3CCc5ccccc5C3)CCO4)cc2[nH]1 [Compound 113, 4-(3,4-dihydroisoquinolin-2(1H)-ylcarbonyl)-7-(2-methyl-1H-benzimidazol-6-yl)-2,3,4,5-tetrahydro-1,4-benzoxazepine]"

# The next lines start with the molecule.
SMILES,IC50 (mTORC1 (mTOR/GbL/Raptor)) [nM],IC50 (PI3Kα) [nM]
"Cc1nc2ccc(-c3ccc4c(c3)CN(C(=O)N3CC5CCCC5C3)CCO4)cc2[nH]1 (stereo not shown) [Compound 84, 4-(hexahydrocyclopenta[c]pyrrol-2(1H)-ylcarbonyl)-7-(2-methyl-1H-benzimidazol-6-yl)-2,3,4,5-tetrahydro-1,4-benzoxazepine]",50 to 250,200 to 500
"Cc1nc2ccc(-c3ccc4c(c3)CN(C(=O)N3CCC(O)(c5ccc(F)cc5)CC3)CCO4)cc2[nH]1 [Compound 142, 4-(4-fluorophenyl)-1-{[7-(2-methyl-1H-benzimidazol-6-yl)-2,3-dihydro-1,4-benzoxazepin-4(5H)-yl]carbonyl}piperidin-4-ol]",≤ 50,200 to 500
"Cc1ccc(OCC2CN(C(=O)N3CCOc4ccc(-c5ccc6nc(C)[nH]c6c5)cc4C3)CCO2)cc1 (stereo not shown) [Compound 154, 7-(2-methyl-1H-benzimidazol-6-yl)-4-[(2-{[(4-methylphenyl)oxy]methyl}morpholin-4-yl)carbonyl]-2,3,4,5-tetrahydro-1,4-benzoxazepine]",700 to 2600,1000 to 3000
"COC(=O)Nc1nc2ccc(-c3ccc4c(c3)CN(C(=O)N3CCC(O)(C(F)(F)F)CC3)CCO4)cc2[nH]1 [Compound 22, methyl [6-(4-{[4-hydroxy-4-(trifluoromethyl)piperidin-1-yl]carbonyl}-2,3,4,5-tetrahydro-1,4-benzoxazepin-7-yl)-1H-benzimidazol-2-yl]carbamate]",≤ 50,200 to 500
"COC(=O)Nc1nc2ccc(-c3ccc4c(c3)CN(C(=O)N3CCC(C)(O)CC3)CCO4)cc2[nH]1 [Compound 24, methyl (6-{4-[(4-hydroxy-4-methylpiperidin-1-yl)carbonyl]-2,3,4,5-tetrahydro-1,4-benzoxazepin-7-yl}-1H-benzimidazol-2-yl)carbamate]",250 to 700,200 to 500
"O=C(N1CCOc2ccc(-c3cnc4nc[nH]c4c3)cc2C1)N1[C@@H]2CC[C@H]1C[C@](O)(C(F)(F)F)C2 [Compound 178, 8-{[7-(1H-imidazo[4,5-b]pyridin-6-yl)-2,3-dihydro-1,4-benzoxazepin-4(5H)-yl]carbonyl}-3-(trifluoromethyl)-8-azabicyclo[3.2.1]octan-3-(endo)-ol]",50 to 250,200 to 500
"COC(=O)Nc1nc2ncc(-c3ccc4c(c3)CN(C(=O)N3CCC(C)CC3)CCO4)cc2[nH]1 [Compound 41, methyl (6-{4-[(4-methylpiperidin-1-yl)carbonyl]-2,3,4,5-tetrahydro-1,4-benzoxazepin-7-yl}-1H-imidazo[4,5-b]pyridin-2-yl)carbamate]",≤ 50,≤ 75
"Cc1nc2ccc(-c3ccc4c(c3)CN(C(=O)N3CCC5CCCCC5C3)CCO4)cc2[nH]1 (stereo not shown) [Compound 156, 7-(2-methyl-1H-benzimidazol-6-yl)-4-(octahydroisoquinolin-2(1H)-ylcarbonyl)-2,3,4,5-tetrahydro-1,4-benzoxazepine]",50 to 250,200 to 500
"Cc1nc2ccc(-c3ccc4c(c3)CN(C(=O)N3CCC(C)(F)CC3)CCO4)cc2[nH]1 [Compound 83, 4-[(4-fluoro-4-methylpiperidin-1-yl)carbonyl]-7-(2-methyl-1H-benzimidazol-6-yl)-2,3,4,5-tetrahydro-1,4-benzoxazepine]",50 to 250,1000 to 3000
"Cc1nc2ccc(-c3ccc4c(c3)CN(C(=O)N3CCN(c5ccccn5)CC3)CCO4)cc2[nH]1 [Compound 172, 7-(2-methyl-1H-benzimidazol-6-yl)-4-[(4-pyridin-2-ylpiperazin-1-yl)carbonyl]-2,3,4,5-tetrahydro-1,4-benzoxazepine]",700 to 2600,200 to 500
"Cc1nc2ccc(-c3ccc4c(c3)CN(C(=O)N3CCCCCCC3)CCO4)cc2[nH]1 [Compound 167, 4-(azocan-1-ylcarbonyl)-7-(2-methyl-1H-benzimidazol-6-yl)-2,3,4,5-tetrahydro-1,4-benzoxazepine]",700 to 2600,1000 to 3000
"Cc1nc2ccc(-c3ccc4c(c3)CN(C(=O)N3CCC(C(C)(C)O)CC3)CCO4)cc2[nH]1 [Compound 139, 2-(1-{[7-(2-methyl-1H-benzimidazol-6-yl)-2,3-dihydro-1,4-benzoxazepin-4(5H)-yl]carbonyl}piperidin-4-yl)propan-2-ol]",50 to 250,1000 to 3000
"COC(=O)Nc1nc2ccc(-c3ccc4c(c3)CN(C(=O)N3C5CCC3CC(=O)C5)CCO4)cc2[nH]1 [Compound 25, methyl (6-{4-[(3-oxo-8-azabicyclo[3.2.1]oct-8-yl)carbonyl]-2,3,4,5-tetrahydro-1,4-benzoxazepin-7-yl}-1H-benzimidazol-2-yl)carbamate]",50 to 250,200 to 500
"CC1(O)CCN(C(=O)N2CCOc3ccc(-c4ccc5nc(N)[nH]c5c4)cc3C2)CC1 [Compound 23, 1-{[7-(2-amino-1H-benzimidazol-6-yl)-2,3-dihydro-1,4-benzoxazepin-4(5H)-yl]carbonyl}-4-methylpiperidin-4-ol]",≤ 50,75 to 200
"CCNc1nc2ncc(-c3ccc4c(c3)CN(C(=O)N3[C@@H]5CC[C@H]3C[C@](O)(C(F)(F)F)C5)CCO4)cc2[nH]1 [Compound 179, 8-({7-[2-(ethylamino)-1H-imidazo[4,5-b]pyridin-6-yl]-2,3-dihydro-1,4-benzoxazepin-4(5H)-yl}carbonyl)-3-(trifluoromethyl)-8-azabicyclo[3.2.1]octan-3-(endo)-ol]",≤ 50,≤ 75
"COC(=O)Nc1nc2ccc(-c3ccc4c(c3)CN(C(=O)N3CCC(C)CC3)CCO4)cc2[nH]1 [Compound 2, methyl (6-{4-[(4-methylpiperidin-1-yl)carbonyl]-2,3,4,5-tetrahydro-1,4-benzoxazepin-7-yl}-1H-benzimidazol-2-yl)carbamate]",50 to 250,200 to 500
"CCC1CCCN(C(=O)N2CCOc3ccc(-c4ccc5nc(C)[nH]c5c4)cc3C2)C1 (stereo not shown) [Compound 72, 4-[(3-ethylpiperidin-1-yl)carbonyl]-7-(2-methyl-1H-benzimidazol-6-yl)-2,3,4,5-tetrahydro-1,4-benzoxazepine]",50 to 250,200 to 500
